Measured values reported in patent publication US20160346226A1, “Therapeutic Applications Of Prenylated Stilbenoids Against Rotavirus Infections” (ARKANSAS STATE UNIVERSITY, priority 2015, published 2016).
Like-named read-outs stand apart in the source and are kept apart here.

Key:
RV SA114F [1] = assay: Focus forming unit (FFU) viral titer of supernatants of RV-infected HT29.f8 cells treated with stilbenoids; type: cell-based, simian rotavirus SA114F
RV SA114F [2] = assay: Plaque forming unit (PFU) assay of the same supernatants; type: cell-based, simian rotavirus SA114F; conditions: 20 μM, average of three experiments, HT29.f8 supernatants
[3] = system: rotavirus (Wa) infected HT29.f8 cells; assay: TEM observations of cell ultrastructure of rotavirus (Wa) infected HT29.f8 cells; type: cell-based, human; conditions: 20 μM, 18 hpi
Description: Observations of Cell Ultrastructure with TEM of Rotavirus (RV) Infected HT29.f8 Cells w/without t-A3
Mitochondria (M), rotavirus particles (RV), and a nucleolus (N) can be seen. Final Magnification=8,300×.

[4] = system: cannabinoid receptor 1 (CB1R); conditions: cited from earlier work; for mode of action at CB1R: reference [19]; for modulation of the cannabinoid receptors: references [18, 19]
RV-infected MA104 cells = conditions: reference [29]; cited from earlier work
mammalian cells = conditions: all cell lines, reference [3]; cited from earlier work
[5] = system: human leukemia HL-60 cells; conditions: reference [2]; cited from earlier work

Which “change in virus titer (FFU) compared to RV-infected control” value (“change in virus titer (FFU)” for short) (RV SA114F [1]) does the source give for `CC(C)/C=C/c1c(O)cc(/C=C/c2ccc(O)cc2)cc1O` [t-A3, trans-arachidin-3] here?
The value was “one hundred fold decrease in virus titer”.

What about the “difference in PFU/ml versus RV only and RV with DMSO” value (“difference” below) (RV SA114F [2]) of the same compound?
The value was “one hundred fold difference”.

What about the “RV particles observed that were noninfectious, immature enveloped particles” value [3] of the same compound?
The value was “about 50%”.

And the “autophagic vesicles (AV)” value ([3]; RV(Wa))?
Its value is “absent”.

What about the mitochondria ultrastructure ([3]; RV(Wa)) of the same compound?
The mitochondria ultrastructure was “Many mitochondria present with normal ultrastructure”.

And the nucleoli ([3]; RV(Wa))?
The nucleoli was “Nucleoli present”.

And the “vesicles in the cytoplasm” value ([3]; RV(Wa))?
The value was “not as many as in the RV(Wa) only”.

And the “mode of action at CB1R” value [4]?
The value was “competitive cannabinoid receptor 1 (CB1R) antagonist”.

And the “modulation of the cannabinoid receptors” value [4]?
The value was “modulate the cannabinoid receptors at micromolar levels”.

For `Oc1ccc(/C=C/c2cc(O)cc(O)c2)cc1` [t-Res, Trans-resveratrol, reference compound], which “change in virus titer (FFU)” value (RV SA114F [1]; 20 μM, 24 hours post-infection, HT29.f8 cells) is on record?
Its value is “no change in the virus titer”.

What about the “difference” value (RV SA114F [2]) of the same compound?
The value was “no statistical differences”.

With `CCCCCCCCCCCCCCOc1ccc(C(=O)O)o1` [TOFA, 5-(tetradecyloxy)-2-furoic acid] as the compound, how does the “virus infectivity and viral RNA production” value (RV-infected MA104 cells) read?
The value was “dose-dependent reduction”.

Which “change in virus titer (FFU)” value (RV SA114F [1]) does the source give for `CC(C)/C=C/c1c(O)cc(/C=C/c2ccc(O)c(O)c2)cc1O` [t-A1, Trans-Arachidin-1] here?
The value was “one hundred fold decrease in virus titer”.

What about the “difference” value (RV SA114F [2]) of the same compound?
Its value is “one hundred fold difference”.

And the “mode of action at CB1R” value [4]?
Its value is “antagonize CB1R agonists by both competitive and non-competitive mechanisms”.

What about the “modulation of the cannabinoid receptors” value [4] of the same compound?
The value was “modulate the cannabinoid receptors at micromolar levels”.

And the cytotoxicity (mammalian cells)?
The cytotoxicity was “highest but moderate cytotoxicity”.

And the programmed cell death [5]?
The programmed cell death was “inducing programmed cell death”.
